Consider 2 compounds from publication PMC5487684, “Safety, Pharmacokinetics, and Antiviral Activity of a Novel HIV Antiviral, ABX464, in Treatment-Naive HIV-Infected Subjects in a Phase 2 Randomized, Controlled Study” (Antimicrobial Agents and Chemotherapy, 2017).

Each structure is given as a SMILES string.

For data set [1], the system named is HIV-1. The following applies: cited from earlier work.
Data set [2] can be described thus: Plasma pharmacokinetics of ABX464 and ABX464-NGlc in HIV-infected subjects. It counts as in vivo, human. As for the experimental part:
Plasma samples were analyzed for ABX464 and ABX464-NGlc using validated bioanalytical methods by Atlanbio (Saint Nazaire, France) according to good laboratory practices. Pharmacokinetic parameters were calculated by noncompartmental analysis (NCA), using Phoenix WinNonlin software (Pharsight Corporation) running on a personal computer. On day 1, the following PK parameters were generated: Cmax, the time to Cmax (Tmax), lag time (tlag), elimination rate constant (kel), area under the concentration-time curve (AUC) from time zero to time t (AUC0–t), AUC from time zero to infinity (AUC0–∞), apparent clearance (CL/F), and apparent volume of distribution (V/F). On the other days of PK assessment, only Cmax, Tmax, tlag, kel, and AUC0–t were generated. The secondary analysis concerned pharmacodynamic (PD) activity, as expressed by CD4 and CD8 levels and viral load across time. The HIV viral load was analyzed in the prequalified individual local study center laboratories. CD4 and CD8 cell counts were also determined in the local study center laboratories. With respect to the viral load, changes in the log-transformed viral load values between 24 h postdose and predose were calculated on each day, and a comparison between each dose level and pooled placebo data was made. Moreover, the rate of success (defined as a decrease in the viral load value of at least 0.5 log) was evaluated for each treatment (including placebo) and compared between treatments.

Data set [3] relates to HIV replication in macrophages. Details: method as in PMID 25889234. The following applies: in vitro; cited from earlier work.
In data set [4] the test system is HIV replication in PBMCs. Details: method as in PMID 25889234. The following applies: in vitro; cited from earlier work.

Turning to `Cn1cc(-c2cccc3cc(C(=O)N=C(N)N)ccc23)cn1`, in data set [1] (10 days of treatment), the “Decrease in mean total HIV-1 DNA copy number in monocytes” value is 2.7 fold and the “Reduction in mean total HIV-1 DNA copy number in monocytes” value is 63%. Also, in data set [1], the “Effect on HIV viral load in plasma or CD4 T cell count” value was “no significant effect” and the “Treated individuals with significant reductions in total HIV-1 DNA levels within monocytes” value was “three of the six”.

As for `O=C(O)[C@H]1O[C@@H](N(c2ccc(OC(F)(F)F)cc2)c2ccc3cccc(Cl)c3n2)[C@H](O)[C@@H](O)[C@@H]1O` [ABX464-NGlc, ABX464-N-glucuronide], the “half-life (t1/2)” value in data set [2] (HIV-infected subjects, oral) is on record as “about 100 h”. Also, in data set [2] (human, in vivo), the “Bioavailability of ABX464-NGlc in human subjects relative to mice” value was “approximately 15 fold”. In addition, the “Cmax of the metabolite relative to that of the parent compound” value in data set [2] (plasma) is “approximately 160 fold”. Besides, in data set [3], the “50% inhibitory concentration in macrophage culture relative to parent drug” value is “same 50% inhibitory concentration as the parent drug” and the “Inhibition of HIV replication in macrophage culture” value was “able to inhibit HIV replication”. The “Antiviral effect on HIV replication in PBMCs” value in data set [4] is recorded as “no antiviral effect”.
